Key:
[1] = Food consumption, 4-week subacute toxicity study; format: in vivo, Sprague Dawley (SD) rats
Description: Food consumption of all surviving animals was recorded twice a week during the dosing phase and then once a week in last 2 weeks of recovery phase.

µ-opioid receptor (MOR) = system: µ-opioid receptor (MOR); parameters: method as in Yang et al., 2022; details: ref Yang et al., 2022, cited from earlier work
[2] = female rats, 0.6 mg/kg/day, Day 3
[3] = female rats, 0.6 mg/kg/day, Day 7
[4] = female rats, 0.6 mg/kg/day, Day 10
[5] = female rats, 0.6 mg/kg/day, Day 14
[6] = female rats, 0.6 mg/kg/day, Day 17
[7] = female rats, 0.6 mg/kg/day, Day 21
[8] = female rats, 0.6 mg/kg/day, Day 24
[9] = female rats, 0.6 mg/kg/day, Day 28
[10] = female rats, 0.6 mg/kg/day, Recovery day 20
[11] = female rats, 0.6 mg/kg/day, Recovery day 27
[12] = female rats, 1.2 mg/kg/day, Day 3
[13] = female rats, 1.2 mg/kg/day, Day 7
[14] = female rats, 1.2 mg/kg/day, Day 10
[15] = female rats, 1.2 mg/kg/day, Day 14
[16] = female rats, 1.2 mg/kg/day, Day 17
[17] = female rats, 1.2 mg/kg/day, Day 21
[18] = female rats, 1.2 mg/kg/day, Day 24
[19] = female rats, 1.2 mg/kg/day, Day 28
[20] = female rats, 1.2 mg/kg/day, Recovery day 20
[21] = female rats, 1.2 mg/kg/day, Recovery day 27
[22] = female rats, 2.4 mg/kg/day, Day 3
[23] = female rats, 2.4 mg/kg/day, Day 7
[24] = female rats, 2.4 mg/kg/day, Day 10
[25] = female rats, 2.4 mg/kg/day, Day 14
[26] = female rats, 2.4 mg/kg/day, Day 17
[27] = female rats, 2.4 mg/kg/day, Day 21
[28] = female rats, 2.4 mg/kg/day, Day 24
[29] = female rats, 2.4 mg/kg/day, Day 28
[30] = female rats, 2.4 mg/kg/day, Recovery day 20
[31] = female rats, 2.4 mg/kg/day, Recovery day 27
[32] = male rats, 0.6 mg/kg/day, Day 3
[33] = male rats, 0.6 mg/kg/day, Day 7
[34] = male rats, 0.6 mg/kg/day, Day 10
[35] = male rats, 0.6 mg/kg/day, Day 14
[36] = male rats, 0.6 mg/kg/day, Day 17
[37] = male rats, 0.6 mg/kg/day, Day 21
[38] = male rats, 0.6 mg/kg/day, Day 24
[39] = male rats, 0.6 mg/kg/day, Day 28
[40] = male rats, 0.6 mg/kg/day, Recovery day 20
[41] = male rats, 0.6 mg/kg/day, Recovery day 27
[42] = male rats, 1.2 mg/kg/day, Day 3
[43] = male rats, 1.2 mg/kg/day, Day 7
[44] = male rats, 1.2 mg/kg/day, Day 10
[45] = male rats, 1.2 mg/kg/day, Day 14
[46] = male rats, 1.2 mg/kg/day, Day 17
[47] = male rats, 1.2 mg/kg/day, Day 21
[48] = male rats, 1.2 mg/kg/day, Day 24
[49] = male rats, 1.2 mg/kg/day, Day 28
[50] = male rats, 1.2 mg/kg/day, Recovery day 20
[51] = male rats, 1.2 mg/kg/day, Recovery day 27
[52] = male rats, 2.4 mg/kg/day, Day 3
[53] = male rats, 2.4 mg/kg/day, Day 7
[54] = male rats, 2.4 mg/kg/day, Day 10
[55] = male rats, 2.4 mg/kg/day, Day 14
[56] = male rats, 2.4 mg/kg/day, Day 17
[57] = male rats, 2.4 mg/kg/day, Day 21
[58] = male rats, 2.4 mg/kg/day, Day 24
[59] = male rats, 2.4 mg/kg/day, Day 28
[60] = male rats, 2.4 mg/kg/day, Recovery day 20
[61] = male rats, 2.4 mg/kg/day, Recovery day 27

Fc1ccc([C@]2(CCNCc3cccc(Cl)c3)CCO[C@]3(CCOC3)C2)nc1 [LPM3480392]
Food consumption [1, 2]: 12.6 ± 1.3 g/animal/cage/day | Food consumption change rate [1, 2]: −14.86% | Food consumption [1, 3]: 15.4 ± 1.1 g/animal/cage/day | Food consumption change rate [1, 3]: 1.32% | Food consumption [1, 4]: 15.9 ± 1.1 g/animal/cage/day | Food consumption change rate [1, 4]: −3.05% | Food consumption [1, 5]: 16.0 ± 0.5 g/animal/cage/day | Food consumption change rate [1, 5]: −15.79% | Food consumption [1, 6]: 15.8 ± 1.0 g/animal/cage/day | Food consumption change rate [1, 6]: 9.72% | Food consumption [1, 7]: 15.7 ± 0.7 g/animal/cage/day | Food consumption change rate [1, 7]: −1.88% | Food consumption [1, 8]: 14.9 ± 1.4 g/animal/cage/day | Food consumption change rate [1, 8]: −6.29% | Food consumption [1, 9]: 16.4 ± 0.9 g/animal/cage/day | Food consumption change rate [1, 9]: −0.61% | Food consumption [1, 10]: 15.9 g/animal/cage/day | Food consumption change rate [1, 10]: −5.36% | Food consumption [1, 11]: 13.3 g/animal/cage/day | Food consumption change rate [1, 11]: −15.82% | Food consumption [1, 12]: 14.9 ± 1.1 g/animal/cage/day | Food consumption change rate [1, 12]: 0.68% | Food consumption [1, 13]: 15.0 ± 1.3 g/animal/cage/day | Food consumption change rate [1, 13]: −1.32% | Food consumption [1, 14]: 15.2 ± 0.6 g/animal/cage/day | Food consumption change rate [1, 14]: −7.32% | Food consumption [1, 15]: 15.7 ± 0.9 g/animal/cage/day | Food consumption change rate [1, 15]: −17.37% | Food consumption [1, 16]: 16.6 ± 0.2 g/animal/cage/day | Food consumption change rate [1, 16]: 15.28% | Food consumption [1, 17]: 15.8 ± 1.4 g/animal/cage/day | Food consumption change rate [1, 17]: −1.25% | Food consumption [1, 18]: 16.6 ± 1.7 g/animal/cage/day | Food consumption change rate [1, 18]: 4.40% | Food consumption [1, 19]: 16.4 ± 0.8 g/animal/cage/day | Food consumption change rate [1, 19]: −0.61% | Food consumption [1, 20]: 15.1 g/animal/cage/day | Food consumption change rate [1, 20]: −10.12% | Food consumption [1, 21]: 16.7 g/animal/cage/day | Food consumption change rate [1, 21]: 5.70% | Food consumption [1, 22]: 13.0 ± 2.1 g/animal/cage/day | Food consumption change rate [1, 22]: −12.16% | Food consumption [1, 23]: 15.8 ± 1.9 g/animal/cage/day | Food consumption change rate [1, 23]: 3.95% | Food consumption [1, 24]: 15.1 ± 0.8 g/animal/cage/day | Food consumption change rate [1, 24]: −7.93% | Food consumption [1, 25]: 17.5 ± 1.0 g/animal/cage/day | Food consumption change rate [1, 25]: −7.89% | Food consumption [1, 26]: 15.1 ± 1.0 g/animal/cage/day | Food consumption change rate [1, 26]: 4.86% | Food consumption [1, 27]: 17.5 ± 1.3 g/animal/cage/day | Food consumption change rate [1, 27]: 9.38% | Food consumption [1, 28]: 15.6 ± 1.2 g/animal/cage/day | Food consumption change rate [1, 28]: −1.89% | Food consumption [1, 29]: 16.7 ± 0.8 g/animal/cage/day | Food consumption change rate [1, 29]: 1.21% | Food consumption [1, 30]: 16.4 g/animal/cage/day | Food consumption change rate [1, 30]: −2.38% | Food consumption [1, 31]: 15.0 g/animal/cage/day | Food consumption change rate [1, 31]: −5.06% | Food consumption [1, 32]: 19.7 ± 0.1 g/animal/cage/day | Food consumption change rate [1, 32]: −2.96% | Food consumption [1, 33]: 20.8 ± 0.6 g/animal/cage/day | Food consumption change rate [1, 33]: −8.37% | Food consumption [1, 34]: 23.0 ± 1.6 g/animal/cage/day | Food consumption change rate [1, 34]: −17.56% | Food consumption [1, 35]: 21.0 ± 1.3 g/animal/cage/day | Food consumption change rate [1, 35]: −17.32% | Food consumption [1, 36]: 21.1 ± 1.9 g/animal/cage/day | Food consumption change rate [1, 36]: −11.34% | Food consumption [1, 37]: 21.6 ± 0.8 g/animal/cage/day | Food consumption change rate [1, 37]: −9.24% | Food consumption [1, 38]: 20.6 ± 1.0 g/animal/cage/day | Food consumption change rate [1, 38]: −8.04% | Food consumption [1, 39]: 22.9 ± 1.2 g/animal/cage/day | Food consumption change rate [1, 39]: −5.76% | Food consumption [1, 40]: 25.2 g/animal/cage/day | Food consumption change rate [1, 40]: 0.40% | Food consumption [1, 41]: 22.3 g/animal/cage/day | Food consumption change rate [1, 41]: 0.90% | Food consumption [1, 42]: 19.2 ± 0.9 g/animal/cage/day | Food consumption change rate [1, 42]: −5.42% | Food consumption [1, 43]: 20.5 ± 0.7 g/animal/cage/day | Food consumption change rate [1, 43]: −9.69% | Food consumption [1, 44]: 20.4 ± 1.8 g/animal/cage/day | Food consumption change rate [1, 44]: −26.88% | Food consumption [1, 45]: 20.2 ± 0.7 g/animal/cage/day | Food consumption change rate [1, 45]: −20.47% | Food consumption [1, 46]: 20.5 ± 1.7 g/animal/cage/day | Food consumption change rate [1, 46]: −13.87% | Food consumption [1, 47]: 23.2 ± 1.2 g/animal/cage/day | Food consumption change rate [1, 47]: −2.52% | Food consumption [1, 48]: 22.2 ± 1.1 g/animal/cage/day | Food consumption change rate [1, 48]: −0.89% | Food consumption [1, 49]: 22.5 ± 1.3 g/animal/cage/day | Food consumption change rate [1, 49]: −7.41% | Food consumption [1, 50]: 24.5 g/animal/cage/day | Food consumption change rate [1, 50]: −2.39% | Food consumption [1, 51]: 22.6 g/animal/cage/day | Food consumption change rate [1, 51]: 2.26% | Food consumption [1, 52]: 17.8 ± 0.8 g/animal/cage/day | Food consumption change rate [1, 52]: −12.32% | Food consumption [1, 53]: 20.0 ± 2.3 g/animal/cage/day | Food consumption change rate [1, 53]: −11.89% | Food consumption [1, 54]: 20.1 ± 1.9 g/animal/cage/day | Food consumption change rate [1, 54]: −27.96% | Food consumption [1, 55]: 17.3 ± 5.2 g/animal/cage/day | Food consumption change rate [1, 55]: −31.89% | Food consumption [1, 56]: 20.1 ± 0.7 g/animal/cage/day | Food consumption change rate [1, 56]: −15.55% | Food consumption [1, 57]: 23.2 ± 1.1 g/animal/cage/day | Food consumption change rate [1, 57]: −2.52% | Food consumption [1, 58]: 22.1 ± 3.0 g/animal/cage/day | Food consumption change rate [1, 58]: −1.34% | Food consumption [1, 59]: 22.5 ± 1.9 g/animal/cage/day | Food consumption change rate [1, 59]: −7.41% | Food consumption [1, 60]: 24.0 g/animal/cage/day | Food consumption change rate [1, 60]: −4.38% | Food consumption [1, 61]: 23.8 g/animal/cage/day | Food consumption change rate [1, 61]: 7.69% | Emax, β-arrestin-2 recruitment activity (µ-opioid receptor (MOR)): 1.6% | EC50 (µ-opioid receptor (MOR); read-out: EC50, β-arrestin-2 recruitment activity): > 30 µM

Source: paper PMC10436550, “Subacute toxicity evaluations of LPM3480392 in rats, a full µ-opioid receptor biased agonist” (Frontiers in Pharmacology, 2023)
